Source: ChEMBL document CHEMBL3727354, “3-(2-amino-ethyl)-5-(3-cyclohexyl-propylidene)-thiazolidine-2,4-dione and its derivatives as multiple signaling pathway inhibitors and for the treatment of cancer” (2011)
The source made the active and inactive calls. No cut-off for these calls is given here.

Assays:
Mus musculus [1] = assay: Toxicity in B6C3F1 mouse assessed as effect on general health at 20 mg/kg, po administered for 21 days; assay type: organism-based; conditions: in vivo, 504 h
B16-F10 [2] = assay: Antitumor activity against mouse B16F10 cells implanted in B6C3F1 mouse assessed as increase in mouse survival rate at 50 mg/kg, ip administered on day 11 post tumor implantation measured twice a day during compound dosing; assay type: functional, organism-based
[3] = Cell cycle arrest in human U937 cells assessed as decrease in cell level at S phase after 24 hrs by propidium iodide staining-based flow cytometric analysis; assay type: functional; conditions: U-937
[4] = Cell cycle arrest in human U937 cells assessed as accumulation at G2/M phase after 24 hrs by propidium iodide staining-based flow cytometric analysis; assay type: functional; conditions: U-937
[5] = Cell cycle arrest in human U937 cells assessed as decrease in cell level at G0/G1 phase after 24 hrs by propidium iodide staining-based flow cytometric analysis; assay type: functional; conditions: U-937
Mus musculus [6] = assay: Toxicity in B6C3F1 mouse assessed as effect on body weight at 20 mg/kg, po administered for 21 days; assay type: organism-based; conditions: in vivo, 504 h
DU-145 = assay: Induction of apoptosis in human DU145 cells at 5 to 25 uM after 24 hrs by annexin V/propidium iodide staining-based flow cytometric analysis; assay type: functional, cell-based
M12 = assay: Induction of apoptosis in human M12 cells after 24 hrs by annexin V/propidium iodide staining-based flow cytometric analysis; assay type: functional, cell-based
[7] = Inhibition of PI3K/Akt pathway in human U937 cells assessed as reduction of Akt phosphorylation preincubated for 1 hr followed by PMA stimulation measured after 30 mins by Western blot analysis; assay type: cell-based; conditions: U-937
U-937 = assay: Induction of apoptosis in human U937 cells after 24 hrs by annexin V/propidium iodide staining-based flow cytometric analysis; assay type: functional, cell-based
[8] = Inhibition of Raf/MEK/ERK pathway in human U937 cells assessed as reduction of MEK phosphorylation preincubated for 1 hr followed by PMA stimulation measured after 30 mins by Western blot analysis; assay type: cell-based; conditions: U-937
B16-F10 [9] = assay: Antitumor activity against mouse B16F10 cells implanted in B6C3F1 mouse assessed as decrease in lung tumor nodules at 20 mg/kg administered daily via oral gavage started one day before tumor implantation and stopped at day 15 post tumor implantation measured at day 18; assay type: functional, organism-based
Mus musculus [10] = assay: Toxicity in B6C3F1 mouse assessed as effect on general health at 30 to 80 mg/kg, po administered for 21 days; assay type: organism-based; conditions: in vivo, 504 h
[11] = Inhibition of Raf/MEK/ERK pathway in human U937 cells assessed as inhibition of ERK1/2 phosphorylation at Thr202/Tyr204 at 3 uM preincubated for 1 hr followed by PMA stimulation measured after 30 mins by Western blot analysis; assay type: cell-based; conditions: U-937
[12] = Inhibition of Raf/MEK/ERK pathway in human U937 cells assessed as reduction of MEK phosphorylation at 0.3 to 30 uM preincubated for 1 hr followed by PMA stimulation measured after 30 mins by Western blot analysis in presence of MEK inhibitor PD184352; assay type: cell-based; conditions: U-937
Mus musculus [13] = assay: Toxicity in B6C3F1 mouse assessed as effect on body weight at 30 to 80 mg/kg, po administered for 21 days; assay type: organism-based; conditions: in vivo, 504 h

SMILES: Cl.NCCN1C(=O)S/C(=C\CCc2ccccc2)C1=O
- Activity (Mus musculus [1]): Non-toxic
- Activity (B16-F10 [2]): Active
- Activity [3]: Active
- Activity [4]: Active
- Activity [5]: Active
- Activity (Mus musculus [6]): Non-toxic

SMILES: Cl.NCCN1C(=O)S/C(=C\CCC2CCCCC2)C1=O
- Activity (DU-145): inactive
- Activity (M12): Dose-dependent effect
- inhibition [7]: Dose-dependent effect
- Activity (U-937): Dose-dependent effect
- inhibition [8]: Dose-dependent effect
- Activity [3]: Active
- Activity [4]: Active
- Activity (B16-F10 [9]): Active
- Activity (Mus musculus [10]): Non-toxic
- inhibition [11]: Active
- Activity [5]: Active
- inhibition [12]: inactive
- Activity (Mus musculus [13]): Non-toxic
